Test results as given in PMC4478171, “Synthesis, characterization, and preclinical validation of a PET radiopharmaceutical for interrogating Aβ (β-amyloid) plaques in Alzheimer’s disease” (EJNMMI Research, 2015).
Entries after “also recorded” stand apart in the source; their conditions may differ. Read-outs that look alike come from different tables or passages of the source. Blank lines part the entries; values can stand above or below the molecule they belong to.

Tests used:
Aβ plaques = tested on: Aβ plaques; design: method as in PMID 25003699; settings: transgenic mice; cited from earlier work
[1] = tested on: Aβ plaques in autopsy-confirmed AD human tissues; design: method as in PMID 25003699; settings: cited from earlier work
[2] = target: cortical Aβ plaques in AD frontal cortex sections (Homo sapiens, UniProt P05067); test: Autoradiography on AD frontal cortex sections with IHC correlation; assay type: binding; settings: 7A […] with 18F-7B 10 nM
Protocol: Frozen AD frontal cortex sections (12 μm) were obtained using a TBS Minotome PLUS Cryostat. The tissue sections were thaw-mounted onto Superfrost Plus (Fisherbrand 12-550-15 (Fisherbrand, Leicestershire, UK)) microscope slides, allowed to air dry for 10 to 15 min, and stored at −80°C. For autoradiography, brain sections were brought to room temperature for 5 min and then pre-incubated in assay buffer (30 mM Tris-HCl, pH 7.4 + 0.1% BSA) for 10 min at RT. Sections were incubated with ^18F-7B (300 μL/slide; 10 nM) in the assay buffer for 60 min at room temperature. For determining nonspecific binding, adjacent sections were incubated in the additional presence of 2.5 μM cold ligand 7A. Sections were then washed at RT for 1 min in 30 mM Tris-HCl pH 7.4, 2 min in 70% ethanol/30 mM Tris-HCl, 1 min in 30% ethanol/30 mM Tris-HCl, and 1 min in 30 mM Tris-HCl (washing protocol using literature precedents. Sections were then dried and exposed to phosphor-imaging screen (BAS-MS 2025) for 30 min. Autoradiography images were obtained on a Fuji Bio-Imaging System FLA-7000 (Tokyo, Japan) and analyzed using MultiGauge software (Fuji, Tokyo, Japan). Following exposure to a phosphor-imaging screen, the sections were then blocked for 60 min at room temperature with 3% milk-0.25% Tween 20-PBS buffer. […]

AD homogenates = AD homogenates (Homo sapiens, UniProt P05067); settings: cited from earlier work
[3] = comparison values, no reference given; cited from earlier work
[4] = normal mice, cited from earlier work

AD homogenates, sequence (P05067 672-711 limits assumed): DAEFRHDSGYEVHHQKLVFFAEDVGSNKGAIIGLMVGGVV
cortical Aβ plaques in AD frontal cortex sections, sequence (P05067 672-711 limits assumed): as above

inhibition of 18F-7B binding in autoradiography [2]: binding was inhibited
Structure (SMILES): CN(C)c1ccc(/C=C/c2nc3ccc(OCCF)cc3s2)cn1 [7A, (E)-5-(2-(6-(2-fluoroethoxy)benzo[d]thiazol-2-yl)vinyl)-N,N-dimethylpyridin-2-amine]
BBB penetration and plaque labeling by multiphoton imaging (Aβ plaques): could traverse the BBB to label parenchymal plaques in the brain of transgenic mice | plaque types labeled [1]: labels diffuse plaques in autopsy-confirmed AD human tissues; also recorded: binding to both diffuse and fibrillary plaques

Structure (SMILES): CNc1ccc(/C=C/c2ccc(OCCOCCOCCF)cc2)cc1 [Florbetaben]
BP (AD homogenates): 152 | Bmax (AD homogenates): 2,431 nM | Kd (AD homogenates): 16 nM

Structure (SMILES): CNc1ccc(/C=C/c2ccc(OCCOCCOCCF)nc2)cc1 [Florbetapir, (E)-4-(2-(6-(2-(2-(2-^18F-fluoroethoxy)ethoxy)-ethoxy)pyridin-3-yl)vinyl)-N-methyl benzenamine]
log P [3]: 2.4 | Brain uptake ([4]; 2 min): 7.33 ± 1.54 %ID/g | Brain uptake ([4]; 2 h): 1.80 ± 0.07 %ID/g | brain uptake ratio 2 min/2 h [4]: 4.07
